What was measured:
[1] = target: T1, human M A1AT (Homo sapiens, UniProt P01009); experiment: A1AT cell secretion assay using HEK-M cells (ELISA); type: cell-based; settings: 10 μM, 48 h
T1 construct: expressed in transfected cells; host or cells: HEK-M (HEK-EBNA cells containing the M A1AT plasmid)
Procedure: HEK-M cells, a human embryonic kidney cell line stably transfected with the human M A1AT gene, were plated into 96 well plates (3.0×10^5 cells/ml with 200 μl of media/well) overnight at 37° C. in a humidified atmosphere containing 5% CO2. Following incubation cells were washed with 200 μl serum-free media three times and media was replaced with serum-free media containing either vehicle, 10 μM suberanilohydroxamic acid (SAHA) or a compound of the invention (at 10 μM) in replicates of six for 48 h in a 37° C. incubator in a final volume of 200 μl. […]
Briefly, a 96 well plate was coated with human A1AT capture antibody overnight at room temperature (1:180 dilution from stock, 100 μl final volume/well). […] After which, 50 μl stop solution (2M H2SO4) was added and optical density (OD) of each well was read at 450 nm with 570 nm blank subtracted from each well using a microplate reader. A 4 parameter logistic curve was constructed using GraphPad Prism 7 and A1AT concentrations were determined in each sample by interpolation from a standard curve and multiplying by the appropriate dilution factor.
The amount of A1AT secreted from transfected HEK-EBNA cells into the media was measured by ELISA. […]

[2] = Plasma protein binding, rat plasma (rapid equilibrium dialysis); type: in vitro ADME; settings: 37° C.
Procedure: The extent to which compounds of the invention bound to plasma proteins such as albumin and alpha-1 acid glycoprotein within human, rat or mouse plasma was determined by rapid equilibrium dialysis. Compounds were incubated at 5 μM for 4 hours at 37° C. Plasma protein binding for N,N-dimethyl-4-((6-oxopyrimidin-1(6H)-yl)methyl)benzamide in mouse plasma was 37.3%, in rat plasma was 14.8% and in human plasma was 30.6%.

[3] = target: human Z A1AT (Homo sapiens, UniProt P01009, E366K); experiment: Trypsin complex formation by human Z A1AT purified from plasma of treated huZ mice (Western blot); type: biochemical, huZ mouse; set-up: from tissue; host or cells: huZ (PiZZ) transgenic mice, line Z11.03, C57Bl/6 background; made in liver, measured in plasma; settings: Z A1AT purified from plasma of huZ mice treated at 200 mg/kg twice a day by oral gavage for 10 days
Sequence of human Z A1AT (P01009 25-418 E366K): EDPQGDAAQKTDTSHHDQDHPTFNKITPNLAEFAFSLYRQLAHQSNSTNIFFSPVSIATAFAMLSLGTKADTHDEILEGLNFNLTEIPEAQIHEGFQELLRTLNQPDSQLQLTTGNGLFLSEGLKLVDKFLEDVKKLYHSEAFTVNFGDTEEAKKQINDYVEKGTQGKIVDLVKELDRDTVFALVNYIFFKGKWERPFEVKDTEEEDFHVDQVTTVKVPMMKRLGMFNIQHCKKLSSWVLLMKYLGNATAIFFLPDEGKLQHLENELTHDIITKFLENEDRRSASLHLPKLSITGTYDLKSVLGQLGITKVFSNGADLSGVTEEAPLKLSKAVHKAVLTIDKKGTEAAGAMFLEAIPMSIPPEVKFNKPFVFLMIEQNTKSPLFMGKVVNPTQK
Procedure: The aim of the experiment was to purify human Z A1AT from three HuZ mice which had been treated with compound N,N-dimethyl-4-((6-oxopyrimidin-1(6H)-yl)methyl)benzamide (22.1e, 24.1a, 24.1b), then test the activity of the A1AT by reaction with increasing amounts of trypsin. Reaction of A1AT with the trypsin was analysed by western blot, probing with an anti-human A1AT antibody. A control plasma from a wild type mouse treated with the same compound (15.5b) was also included in the study.
Mice were treated with N,N-dimethyl-4-((6-oxopyrimidin-[…]-yl)methyl)benzamide at 200 mg/kg twice a day by oral gavage for 10 consecutive days. Mice had access to food (standard mouse chow, SAFE diets) and water ad libitum. On study day 10, each mouse was dosed 3.5-4.5 hours prior to terminal procedures. […]
100 μl of mouse plasma was diluted to 300 μl with 20 mM Tris, 150 mM NaCl, 5 mM EDTA, pH 7.4 (reaction and wash buffer) prior to purification. […] Residual A1AT in the plasma and plasma supernatant was quantified using a human serpinA1 ELISA (Human Serpin A1/α1-antitrypsin duo set ELISA, R& D Systems, DY1268) to confirm depletion of human A1AT. The concentration of the eluted fractions were also measured. The amount of eluted A1AT was determined by measuring by A280 using an extinction coefficient of 0.45. […]

T1 sequence (P01009 25-418): as the sequence (P01009 25-418 E366K) above, with K342E counted along it

## CN(C)C(=O)c1ccc(Cn2cnccc2=O)cc1 [N,N-dimethyl-4-((6-oxopyrimidin-1(6H)-yl)methyl)benzamide]
[1]
  secretion of M A1AT as measured by ELISA: does not stimulate secretion of M A1AT
[2]
  fraction unbound at 4 h, 5 μM: 0.852
[3]
  activity of eluted human Z A1AT (complex formation with trypsin): native and fully active

— patent publication US12221422B2, “Compounds and their use for the treatment of alpha1-antitrypsin deficiency” (CENTESSA PHARMACEUTICALS (UK) LIMITED, priority 2018, dated 2025)
